Experimental data as given in patent publication US20140343000A1 (priority 2011, published 2014).

test system: recombinant NL4-3 virus (Renilla luciferase in nef, Gag P373S; NLRluc) in MT-2 cells; assay: whole plant or invertebrate; type: cell-based, HIV; conditions: Renilla, NL43
Summary of the method: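 Read-out is Renilla luciferase, measured immediately after adding a premixed lysis/Dual Luciferase reagent. The reporter virus, NL4-3 with luciferase replacing part of nef plus Gag P373S, infected MT-2 cells for 4–5 days under serially diluted inhibitor.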

Row | SMILES | EC50
1 | C=C(C)[C@@H]1CC[C@]2(NCCN3CCC(C(=O)N(C)C)CC3)CC[C@]3(C)[C@H](CC[C@@H]4[C@@]5(C)CC=C(c6ccc(C(=O)O)cc6)C(C)(C)[C@@H]5CC[C@]43C)[C@@H]12 [Example 171, 4-((1R,3aS,5aR,5bR,7aR,11aS,11bR,13aR,13bR)-3a-(2-(4-(dimethylcarbamoyl)piperidin-1-yl)ethylamino)-5a,5b,8,8,11a-pentamethyl-1-(prop-1-en-2-yl)-2,3,3a,4,5,5a,5b,6,7,7a,8,11,11a,11b,12,13,13a,13b-octadecahydro-1H-cyclopenta[a]chrysen-9-yl)benzoic acid] | < 100 nM

same assay, conditions: Renilla, NL43, luciferase activity in cells infected for 4-5 days with NLRluc recombinants, serial dilutions of inhibitor; class symbols (key in Table 1); read-out: EC50

Row | SMILES | EC50
2 | C=C(C)[C@@H]1CC[C@]2(NCCN3CCN(S(=O)(=O)c4ccc(Cl)cc4)CC3)CC[C@]3(C)[C@H](CC[C@@H]4[C@@]5(C)CC=C(c6ccc(C(=O)O)cc6)C(C)(C)[C@@H]5CC[C@]43C)[C@@H]12 [Example B46, 4-((1R,3aS,5aR,5bR,7aR,11aS,11bR,13aR,13bR)-3a-((2-(4-((4-chlorophenyl)sulfonyl)piperazin-1-yl)ethyl)amino)-5a,5b,8,8,11a-pentamethyl-1-(prop-1-en-2-yl)-2,3,3a,4,5,5a,5b,6,7,7a,8,11,11a,11b,12,13,13a,13b-octadecahydro-1H-cyclopenta[a]chrysen-9-yl)benzoic acid] | < 100 nM
3 | C=C(C)[C@@H]1CC[C@]2(NC(=O)CN(C)CCOC)CC[C@]3(C)[C@H](CC[C@@H]4[C@@]5(C)CC=C(c6ccc(C(=O)O)cc6)C(C)(C)[C@@H]5CC[C@]43C)[C@@H]12 [Example 86, 4-((1R,3aS,5aR,5bR,7aR,11aS,11bR,13aR,13bR)-3a-(2-((2-methoxyethyl)(methyl)amino)acetamido)-5a,5b,8,8,11a-pentamethyl-1-(prop-1-en-2-yl)-2,3,3a,4,5,5a,5b,6,7,7a,8,11,11a,11b,12,13,13a,13b-octadecahydro-1H-cyclopenta[a]chrysen-9-yl)benzoic acid] | < 100 nM
4 | C=C(C)[C@@H]1CC[C@]2(NC(=O)CNCCO)CC[C@]3(C)[C@H](CC[C@@H]4[C@@]5(C)CC=C(c6ccc(C(=O)O)cc6)C(C)(C)[C@@H]5CC[C@]43C)[C@@H]12 [Example 106, 4-((1R,3aS,5aR,5bR,7aR,11aS,11bR,13aR,13bR)-3a-(2-(2-hydroxyethylamino)acetamido)-5a,5b,8,8,11a-pentamethyl-1-(prop-1-en-2-yl)-2,3,3a,4,5,5a,5b,6,7,7a,8,11,11a,11b,12,13,13a,13b-octadecahydro-1H-cyclopenta[a]chrysen-9-yl)benzoic acid] | < 100 nM
5 | C=C(C)[C@@H]1CC[C@]2(NC(=O)CN3C(=O)OCc4ccc(Cl)cc43)CC[C@]3(C)[C@H](CC[C@@H]4[C@@]5(C)CC=C(c6ccc(C(=O)O)cc6)C(C)(C)[C@@H]5CC[C@]43C)[C@@H]12 [Example 104, 4-((1R,3aS,5aR,5bR,7aR,11aS,11bR,13aR,13bR)-3a-(2-(7-chloro-2-oxo-2,4-dihydro-1H-benzo[d][1,3]oxazin-1-yl)acetamido)-5a,5b,8,8,11a-pentamethyl-1-(prop-1-en-2-yl)-2,3,3a,4,5,5a,5b,6,7,7a,8,11,11a,11b,12,13,13a,13b-octadecahydro-1H-cyclopenta[a]chrysen-9-yl)benzoic acid] | < 100 nM
6 | C=C(C)[C@@H]1CC[C@]2(NC(=O)C3CCCN3S(C)(=O)=O)CC[C@]3(C)[C@H](CC[C@@H]4[C@@]5(C)CC=C(c6ccc(C(=O)O)cc6)C(C)(C)[C@@H]5CC[C@]43C)[C@@H]12 (stereo partly drawn) [Example 113, 4-((1R,3aS,5aR,5bR,7aR,11aS,11bR,13aR,13bR)-5a,5b,8,8,11a-pentamethyl-3a-(1-(methylsulfonyl)pyrrolidine-2-carboxamido)-1-(prop-1-en-2-yl)-2,3,3a,4,5,5a,5b,6,7,7a,8,11,11a,11b,12,13,13a,13b-octadecahydro-1H-cyclopenta[a]chrysen-9-yl)benzoic acid] | < 100 nM
7 | C=C(C)[C@@H]1CC[C@]2(Nc3nc(CC)cs3)CC[C@]3(C)[C@H](CC[C@@H]4[C@@]5(C)CC=C(c6ccc(C(=O)O)cc6)C(C)(C)[C@@H]5CC[C@]43C)[C@@H]12 [Example 184B, 4-((1R,3aS,5aR,5bR,7aR,11aS,11bR,13aR,13bR)-3a-(4-ethylthiazol-2-ylamino)-5a,5b,8,8,11a-pentamethyl-1-(prop-1-en-2-yl)-2,3,3a,4,5,5a,5b,6,7,7a,8,11,11a,11b,12,13,13a,13b-octadecahydro-1H-cyclopenta[a]chrysen-9-yl)benzoic acid] | < 100 nM
8 | C=C(C)[C@@H]1CC[C@]2(NCCCNC(=O)OC(C)(C)C)CC[C@]3(C)[C@H](CC[C@@H]4[C@@]5(C)CC=C(c6ccc(C(=O)O)cc6)C(C)(C)[C@@H]5CC[C@]43C)[C@@H]12 [Example 143, 4-((1R,3aS,5aR,5bR,7aR,11aS,11bR,13aR,13bR)-3a-(3-(tert-butoxycarbonylamino)propylamino)-5a,5b,8,8,11a-pentamethyl-1-(prop-1-en-2-yl)-2,3,3a,4,5,5a,5b,6,7,7a,8,11,11a,11b,12,13,13a,13b-octadecahydro-1H-cyclopenta[a]chrysen-9-yl)benzoic acid] | < 100 nM
9 | C=C(C)[C@@H]1CC[C@]2(NCCN3CCN(S(=O)(=O)c4cccc5ccccc45)CC3)CC[C@]3(C)[C@H](CC[C@@H]4[C@@]5(C)CC=C(c6ccc(C(=O)O)cc6)C(C)(C)[C@@H]5CC[C@]43C)[C@@H]12 [Example B49, 4-((1R,3aS,5aR,5bR,7aR,11aS,11bR,13aR,13bR)-5a,5b,8,8,11a-pentamethyl-3a-((2-(4-(naphthalen-1-ylsulfonyl)piperazin-1-yl)ethyl)amino)-1-(prop-1-en-2-yl)-2,3,3a,4,5,5a,5b,6,7,7a,8,11,11a,11b,12,13,13a,13b-octadecahydro-1H-cyclopenta[a]chrysen-9-yl)benzoic acid] | < 100 nM
10 | C=C(C)[C@@H]1CC[C@]2(NCC(=O)N(CC)CC)CC[C@]3(C)[C@H](CC[C@@H]4[C@@]5(C)CC=C(c6ccc(C(=O)O)cc6)C(C)(C)[C@@H]5CC[C@]43C)[C@@H]12 [Example 149, 4-((1R,3aS,5aR,5bR,7aR,11aS,11bR,13aR,13bR)-3a-(2-(diethylamino)-2-oxoethylamino)-5a,5b,8,8,11a-pentamethyl-1-(prop-1-en-2-yl)-2,3,3a,4,5,5a,5b,6,7,7a,8,11,11a,11b,12,13,13a,13b-octadecahydro-1H-cyclopenta[a]chrysen-9-yl)benzoic acid] | < 100 nM
11 | C=C(C)[C@@H]1CC[C@]2(NCC3CCCNC3)CC[C@]3(C)[C@H](CC[C@@H]4[C@@]5(C)CC=C(c6ccc(C(=O)O)cc6)C(C)(C)[C@@H]5CC[C@]43C)[C@@H]12 (stereo partly drawn) [Example 154, 4-((1R,3aS,5aR,5bR,7aR,11aS,11bR,13aR,13bR)-5a,5b,8,8,11a-pentamethyl-3a-(piperidin-3-ylmethylamino)-1-(prop-1-en-2-yl)-2,3,3a,4,5,5a,5b,6,7,7a,8,11,11a,11b,12,13,13a,13b-octadecahydro-1H-cyclopenta[a]chrysen-9-yl)benzoic acid] | < 100 nM
12 | C=C(C)[C@@H]1CC[C@]2(NCCNS(C)(=O)=O)CC[C@]3(C)[C@H](CC[C@@H]4[C@@]5(C)CC=C(c6ccc(C(=O)O)cc6)C(C)(C)[C@@H]5CC[C@]43C)[C@@H]12 [Example B21, 4-((1R,3aS,5aR,5bR,7aR,11aS,11bR,13aR,13bR)-5a,5b,8,8,11a-pentamethyl-3a-((2-(methylsulfonamido)ethyl)amino)-1-(prop-1-en-2-yl)-2,3,3a,4,5,5a,5b,6,7,7a,8,11,11a,11b,12,13,13a,13b-octadecahydro-1H-cyclopenta[a]chrysen-9-yl)benzoic acid] | < 100 nM
13 | C=C(C)[C@@H]1CC[C@]2(NCCNS(=O)(=O)C(C)C)CC[C@]3(C)[C@H](CC[C@@H]4[C@@]5(C)CC=C(c6ccc(C(=O)O)cc6)C(C)(C)[C@@H]5CC[C@]43C)[C@@H]12 [Example B30, 4-((1R,3aS,5aR,5bR,7aR,11aS,11bR,13aR,13bR)-5a,5b,8,8,11a-pentamethyl-3a-((2-(1-methylethylsulfonamido)ethyl)amino)-1-(prop-1-en-2-yl)-2,3,3a,4,5,5a,5b,6,7,7a,8,11,11a,11b,12,13,13a,13b-octadecahydro-1H-cyclopenta[a]chrysen-9-yl)benzoic acid] | < 100 nM

same assay, conditions: Renilla, NL43, luciferase activity in cells infected for 4-5 days with NLRluc recombinants, serial dilutions of inhibitor; numeric values; read-out: EC50

Row | SMILES | EC50
14 | C=C(C)[C@@H]1CC[C@]2(N(CC(=O)CC)c3nc(CC)cs3)CC[C@]3(C)[C@H](CC[C@@H]4[C@@]5(C)CC=C(c6ccc(C(=O)O)cc6)C(C)(C)[C@@H]5CC[C@]43C)[C@@H]12 [Example 184A, 4-((1R,3aS,5aR,5bR,7aR,11aS,11bR,13aR,13bR)-3a-((4-ethylthiazol-2-yl)(2-oxobutyl)amino)-5a,5b,8,8,11a-pentamethyl-1-(prop-1-en-2-yl)-2,3,3a,4,5,5a,5b,6,7,7a,8,11,11a,11b,12,13,13a,13b-octadecahydro-1H-cyclopenta[a]chrysen-9-yl)benzoic acid] | 390 nM
15 | C=C(C)[C@@H]1CC[C@]2(NC(=O)N[C@@H](CO)C(=O)O)CC[C@]3(C)[C@H](CC[C@@H]4[C@@]5(C)CC=C(c6ccc(C(=O)O)cc6)C(C)(C)[C@@H]5CC[C@]43C)[C@@H]12 [Example 18, 4-((1R,3aS,5aR,5bR,7aR,11aS,11bR,13aR,13bR)-3a-(3-((S)-1-carboxy-2-hydroxyethyl)ureido)-5a,5b,8,8,11a-pentamethyl-1-(prop-1-en-2-yl)-2,3,3a,4,5,5a,5b,6,7,7a,8,11,11a,11b,12,13,13a,13b-octadecahydro-1H-cyclopenta[a]chrysen-9-yl)benzoic acid] | 250 nM

same assay, conditions: luciferase activity in cells infected for 4-5 days with NLRluc recombinants, serial dilutions of inhibitor; class symbols (key in Table 1); read-out: EC50

Row | SMILES | EC50
16 | C=C(C)[C@@H]1CC[C@]2(NC(=O)C(c3ccccc3)N3CCS(=O)(=O)CC3)CC[C@]3(C)[C@H](CC[C@@H]4[C@@]5(C)CC=C(c6ccc(C(=O)O)cc6)C(C)(C)[C@@H]5CC[C@]43C)[C@@H]12 (single isomer, unassigned) [Example 92] | < 100 nM
